Experimental data: PubChem BioAssay AID248 (DTP/NCI, 2004)
Inconclusive results and toxic doses are left out. Rule as the data show it: active = T/C of 150% or more; inactive = T/C below 125%.

System: L1210 leukemia ip in BDF1 mice, survival T/C
Test: NCI In Vivo Anticancer Drug Screen. Data for tumor model L1210 Leukemia (intraperitoneal) in B6D2F1 (BDF1) mice
Conditions: endpoint: mean survival time, higher = longer survival
Summary of the method: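 Transplantable tumor model; survival measured in treated vs vehicle control mice. Value = treated/control.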

[1] = dose: 100.0 mg/kg/injection, schedule: Q01DX009 (ip), vehicle: saline with Tween-80
[2] = dose: 200.0 mg/kg/injection, schedule: Q01DX009 (ip), vehicle: saline with Tween-80
[3] = dose: 400.0 mg/kg/injection, schedule: Q01DX009 (ip), vehicle: saline with Tween-80
[4] = dose: 50.0 mg/kg/injection, schedule: Q01DX009 (ip), vehicle: saline with Tween-80
[5] = dose: 100.0 mg/kg/injection, schedule: Q04DX003 (ip), vehicle: saline with Tween-80
[6] = dose: 200.0 mg/kg/injection, schedule: Q04DX003 (ip), vehicle: saline with Tween-80
[7] = dose: 50.0 mg/kg/injection, schedule: Q01DX009 (ip), vehicle: saline
[8] = dose: 100.0 mg/kg/injection, schedule: Q01DX009 (ip), vehicle: saline
[9] = dose: 100.0 mg/kg/injection, schedule: Q01DX001 (ip), vehicle: saline
[10] = dose: 200.0 mg/kg/injection, schedule: Q01DX001 (ip), vehicle: saline
[11] = dose: 400.0 mg/kg/injection, schedule: Q01DX001 (ip), vehicle: saline
[12] = dose: 100.0 mg/kg/injection, schedule: Q01DX001 (ip), vehicle: Klucel (hydroxypropylcellulose) (HPC)
[13] = dose: 100.0 mg/kg/injection, schedule: Q04DX003 (ip), vehicle: Klucel (hydroxypropylcellulose) (HPC)
[14] = dose: 200.0 mg/kg/injection, schedule: Q01DX001 (ip), vehicle: Klucel (hydroxypropylcellulose) (HPC)
[15] = dose: 200.0 mg/kg/injection, schedule: Q04DX003 (ip), vehicle: Klucel (hydroxypropylcellulose) (HPC)
[16] = dose: 400.0 mg/kg/injection, schedule: Q01DX001 (ip), vehicle: Klucel (hydroxypropylcellulose) (HPC)
[17] = dose: 400.0 mg/kg/injection, schedule: Q04DX003 (ip), vehicle: Klucel (hydroxypropylcellulose) (HPC)
[18] = dose: 100.0 mg/kg/injection, schedule: Q01DX009 (ip), vehicle: Klucel (hydroxypropylcellulose) (HPC)
[19] = dose: 200.0 mg/kg/injection, schedule: Q01DX009 (ip), vehicle: Klucel (hydroxypropylcellulose) (HPC)

Measured: T/C

COc1cc(OC(C)=O)c(OC(C)=O)cc1OC(C)=O
inactive: [1] 98 % of control | [2] 96 % of control | [3] 100 % of control

O=C(Nc1ccc(NC(=O)OCc2ccccc2)c(Cl)c1)OCc1ccccc1
inactive: dose: 75.0 mg/kg/injection, schedule: Q01DX001 (ip), vehicle: Klucel (hydroxypropylcellulose) (HPC) 93 % of control | dose: 75.0 mg/kg/injection, schedule: Q01DX009 (ip), vehicle: Klucel (hydroxypropylcellulose) (HPC) 92 % of control | dose: 150.0 mg/kg/injection, schedule: Q01DX001 (ip), vehicle: Klucel (hydroxypropylcellulose) (HPC) 95 % of control | dose: 150.0 mg/kg/injection, schedule: Q01DX009 (ip), vehicle: Klucel (hydroxypropylcellulose) (HPC) 94 % of control | dose: 300.0 mg/kg/injection, schedule: Q01DX001 (ip), vehicle: Klucel (hydroxypropylcellulose) (HPC) 95 % of control | dose: 300.0 mg/kg/injection, schedule: Q01DX009 (ip), vehicle: Klucel (hydroxypropylcellulose) (HPC) 94 % of control

CCCc1ccc(OC/C=C(\C)CCC2OC2(C)CC)cc1 (stereo not drawn)
inactive: dose: 100.0 mg/kg/injection, schedule: Q04DX002 (ip), vehicle: saline with Tween-80 92 % of control | dose: 200.0 mg/kg/injection, schedule: Q04DX002 (ip), vehicle: saline with Tween-80 99 % of control | dose: 400.0 mg/kg/injection, schedule: Q04DX002 (ip), vehicle: saline with Tween-80 92 % of control

CC1=CC2=C(C=O)C(=O)[C@](C)(O)[C@@H](O)C2=CO1
inactive: [4] 109 % of control | [5] 93 % of control | [6] 117 % of control

NCCCOc1ccc([N+](=O)[O-])cc1Cl
inactive: [7] 106 % of control | dose: 75.0 mg/kg/injection, schedule: Q01DX001 (ip), vehicle: saline 98 % of control | [8] 110 % of control | dose: 100.0 mg/kg/injection, schedule: Q04DX003 (ip), vehicle: saline 111 % of control | dose: 150.0 mg/kg/injection, schedule: Q01DX001 (ip), vehicle: saline 98 % of control | dose: 200.0 mg/kg/injection, schedule: Q01DX009 (ip), vehicle: saline 101 % of control | dose: 200.0 mg/kg/injection, schedule: Q04DX003 (ip), vehicle: saline 101 % of control

c1ccc(Nc2ncc3cnccn23)cc1
inactive: dose: 25.0 mg/kg/injection, schedule: Q01DX009 (ip), vehicle: saline 96 % of control | [7] 90 % of control | [8] 97 % of control

O=C(CCCC(=O)N/N=C/c1cccc([N+](=O)[O-])c1)N/N=C\c1cccc([N+](=O)[O-])c1
inactive: dose: 50.0 mg/kg/injection, schedule: Q01DX001 (ip), vehicle: saline 101 % of control | [9] 95 % of control | [10] 95 % of control | [11] 91 % of control

COc1cccc(NC2=CC(=O)C(=O)c3ccccc32)c1
inactive: dose: 100.0 mg/kg/injection, schedule: Q01DX001 (ip), vehicle: other 88 % of control | dose: 200.0 mg/kg/injection, schedule: Q01DX001 (ip), vehicle: other 92 % of control | dose: 400.0 mg/kg/injection, schedule: Q01DX001 (ip), vehicle: other 101 % of control

O=[N+]([O-])c1ccccc1N=Nc1c(O)[nH]c2ccc(Br)cc12
inactive: [9] 98 % of control | [10] 101 % of control | [11] 113 % of control

NS(=O)(=O)c1ccc(-c2ccc([As](=O)(O)O)cc2)cc1
inactive: dose: 5.0 mg/kg/injection, schedule: Q01DX001 (ip), vehicle: saline 96 % of control | dose: 10.0 mg/kg/injection, schedule: Q01DX001 (ip), vehicle: saline 87 % of control | dose: 20.0 mg/kg/injection, schedule: Q01DX001 (ip), vehicle: saline 98 % of control | dose: 40.0 mg/kg/injection, schedule: Q01DX001 (ip), vehicle: saline 96 % of control | dose: 80.0 mg/kg/injection, schedule: Q01DX001 (ip), vehicle: saline 98 % of control

NNc1ccc2ccccc2n1
inactive: dose: 5.0 mg/kg/injection, schedule: Q01DX009 (ip), vehicle: saline 95 % of control | dose: 5.0 mg/kg/injection, schedule: Q04DX003 (ip), vehicle: saline with Tween-80 113 % of control | dose: 10.0 mg/kg/injection, schedule: Q01DX009 (ip), vehicle: saline 97 % of control | dose: 10.0 mg/kg/injection, schedule: Q04DX003 (ip), vehicle: saline with Tween-80 101 % of control | dose: 20.0 mg/kg/injection, schedule: Q01DX009 (ip), vehicle: saline 97 % of control | dose: 20.0 mg/kg/injection, schedule: Q04DX003 (ip), vehicle: saline with Tween-80 101 % of control

O=C1CCCCC1CC1(O)C(=O)NC2CCC(Br)CC21 (stereo not drawn)
inactive: dose: 200.0 mg/kg/injection, schedule: Q04DX002 (ip), vehicle: Klucel (hydroxypropylcellulose) (HPC) 100 % of control | dose: 400.0 mg/kg/injection, schedule: Q04DX002 (ip), vehicle: Klucel (hydroxypropylcellulose) (HPC) 92 % of control

COc1cc(Cl)ccc1C
inactive: [4] 98 % of control | [1] 93 % of control | [5] 93 % of control | [2] 90 % of control | [6] 89 % of control

O=C(COc1ccc(Cl)cc1)Nc1cc(Cl)ccc1Cl
inactive: [12] 113 % of control | [13] 88 % of control | [14] 95 % of control | [15] 88 % of control | [16] 97 % of control | [17] 90 % of control

Nc1nc(-c2ccccc2)nc2nonc12
inactive: [5] 105 % of control | [6] 99 % of control | dose: 400.0 mg/kg/injection, schedule: Q04DX003 (ip), vehicle: saline with Tween-80 97 % of control

O=C(NC/C(Br)=C/Br)Nc1c(Cl)cccc1Cl
inactive: [12] 94 % of control | [13] 96 % of control | [14] 91 % of control | [15] 89 % of control | [16] 91 % of control | [17] 93 % of control

CCN(CC)C(C)(O)CN (stereo not drawn)
inactive: [9] 98 % of control | [10] 103 % of control

COC(=O)c1nccnc1N
inactive: dose: 50.0 mg/kg/injection, schedule: Q01DX009 (ip), vehicle: Klucel (hydroxypropylcellulose) (HPC) 94 % of control | dose: 75.0 mg/kg/injection, schedule: Q01DX001 (ip), vehicle: alcohol 108 % of control | [18] 97 % of control | [13] 94 % of control | dose: 150.0 mg/kg/injection, schedule: Q01DX001 (ip), vehicle: alcohol 105 % of control | [19] 108 % of control | [15] 92 % of control | dose: 300.0 mg/kg/injection, schedule: Q01DX001 (ip), vehicle: alcohol 100 % of control | [17] 95 % of control

CC(=O)CC(=O)C(F)(F)F.CC(=O)CC(=O)C(F)(F)F.CC(=O)CC(=O)C(F)(F)F.CC(=O)CC(=O)C(F)(F)F.[Th]
inactive: dose: 100.0 mg/kg/injection, schedule: Q01DX005 (ip), vehicle: gum acacia 90 % of control | dose: 100.0 mg/kg/injection, schedule: Q04DX002 (ip), vehicle: gum acacia 96 % of control | dose: 200.0 mg/kg/injection, schedule: Q01DX005 (ip), vehicle: gum acacia 93 % of control | dose: 200.0 mg/kg/injection, schedule: Q01DX009 (ip), vehicle: gum acacia 101 % of control | dose: 200.0 mg/kg/injection, schedule: Q04DX002 (ip), vehicle: gum acacia 96 % of control | dose: 400.0 mg/kg/injection, schedule: Q01DX005 (ip), vehicle: gum acacia 90 % of control | dose: 400.0 mg/kg/injection, schedule: Q01DX009 (ip), vehicle: gum acacia 94 % of control | dose: 400.0 mg/kg/injection, schedule: Q04DX002 (ip), vehicle: gum acacia 107 % of control

CC(C)NC(=O)Oc1ccc(Br)cc1Br
inactive: [18] 109 % of control | [19] 104 % of control | dose: 400.0 mg/kg/injection, schedule: Q01DX009 (ip), vehicle: Klucel (hydroxypropylcellulose) (HPC) 113 % of control

COn1c(=O)[nH]c2ccccc2c1=O
inactive: [1] 94 % of control | [2] 91 % of control | [3] 97 % of control
